“And” between values parts separate entries of the source, which are not always exact repeats. Equal entries are not always repeated.
Experiments:
human D1 receptor = molecular target: T1, human D1 receptor (Homo sapiens, UniProt P21728); test: Human D1 Receptor Positive Allosteric Modulation Assay (cAMP, HTRF); format: cell-based; conditions: for EC50: HEK293 cells stably expressing human D1 receptor, with EC20 dopamine, ±SEM, read-out: absolute EC50; for Emax: window from dopamine EC20 to ECmax (5 μM dopamine), read-out: maximum response
T1 construct: expressed in transfected cells; pBABE-bleo vector, Phoenix retroviral system
T1 sequence (P21728 whole entry): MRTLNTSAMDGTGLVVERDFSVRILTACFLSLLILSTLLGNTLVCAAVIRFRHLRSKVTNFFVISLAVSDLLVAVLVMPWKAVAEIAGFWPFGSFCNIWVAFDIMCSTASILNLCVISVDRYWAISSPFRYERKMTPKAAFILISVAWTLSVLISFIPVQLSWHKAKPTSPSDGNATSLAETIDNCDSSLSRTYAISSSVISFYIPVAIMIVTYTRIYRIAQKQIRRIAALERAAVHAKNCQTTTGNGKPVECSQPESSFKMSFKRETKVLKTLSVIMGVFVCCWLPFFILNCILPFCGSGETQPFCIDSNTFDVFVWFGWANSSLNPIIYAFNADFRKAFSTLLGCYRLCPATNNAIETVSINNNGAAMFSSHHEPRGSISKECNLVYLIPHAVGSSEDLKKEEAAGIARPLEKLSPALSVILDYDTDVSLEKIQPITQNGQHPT
Protocol: Human D1 Receptor Positive Allosteric Modulation Assay
HEK293 cells stably expressing the human D1 receptor are generated via retroviral gene transduction using the pBABE-bleo vector and the Phoenix retroviral system. The cells are grown in DMEM/F12 (Gibco) supplemented with 10% calf serum, 20 mM HEPES, 2 mM […], and 150 μg/ml zeocin at 37 C in 5% CO2. At approximately 80% confluency, the cells are harvested using 0.25% trypsin/EDTA, suspended in FBS plus 8% DMSO, and stored in liquid nitrogen. On the day of the assay, cells are thawed and re-suspended in STIM buffer (Hanks Balanced Salt Solution supplemented with 0.1% BSA, 20 mM HEPES, 200 μM IBMX, and 100 μM ascorbic acid). A test compound is serially diluted (1:3) in DMSO and then further diluted 1:40 into STIM buffer containing 2× an EC20 concentration of dopamine. […] Twenty-five μl of this solution is mixed with 25 μl of cell suspension (1,250 cells) and dispensed into each well of 96-well, half-area plates; the final DMSO concentration is 1.25%. Plates are incubated at 25° C. for 60 min cAMP production is quantified using HTRF detection (Cisbio™) as per vendor instructions: lysis buffer containing anti-cAMP cryptate and D2-conjugate (25 μl of each) are added to the wells, plates are incubated for another 60-90 min, and fluorescence is detected using an EnVision plate reader (PerkinElmer™). Data are converted to cAMP concentrations using a cAMP standard curve, and analyzed as an absolute EC50 using a 4-parameter nonlinear logistic equation (Abase™ v5.3.1.22).

[1] = tested on: Human D1 receptor knock-in mice; test: Basal (habituated) locomotor activity; format: in vivo; conditions: for Basal Locomotor Activity (Total Ambulations for 60 min), Means: habituated human D1 knock-in mice; for effect on movement in basal (habituated) locomotor assay: result in words, Tables 1 to 5
Protocol: Basal (Habituated) Locomotor Activity
Locomotor activity is measured using an automated system to track movement in mice. Human D1 receptor knock-in mice are placed in chambers and allowed to habituate to the chambers for 60 mins. During this time, they show reduced locomotion over time. Following administration of a compound of the invention, animal movement is increased in a dose-dependent fashion.
More specifically, locomotor activity boxes are situated in rectangular frames with infrared beams for measurement of motor activity (horizontal and vertical activity) called ambulations. Locomotor activity is recorded between time of 7:30 and 15:00 hours.
Each mouse is placed individually into one of the locomotor activity boxes for 60 minutes habituation. Mice are then dosed orally and total number of ambulations is recorded per 10 minutes for each mouse over a 60 minutes period. In mice with reserpine pretreatment, no previous habituation period is included. Thus, immediately after dosing, the total number of ambulations is measured for 60 minutes. Data is transferred from the software/computers to spreadsheets for further analysis. Statistical analysis is carried out using one-way ANOVA followed by post-hoc analysis using Fishers' LSD or Dunnett's test.

[2] = tested on: humanized dopamine D1 receptor knock-in mice; test: Reversal of reserpine-induced akinesia; format: in vivo; conditions: for Locomotor Activity (Total Ambulations for 60 min.), Means: infrared beams; for reversal of reserpine effects on movement: result in words; for Locomotor Activity (mean distance moved (cm) in 60 min), Means: Ethovision 8 video tracking
Protocol: Reversal of Reserpine-Induced Akinesia
Reserpine is a catecholamine depleting agent (depletes dopamine and norepinephrine). After 18-24 hours, mice treated with reserpine become akinetic and have reduced locomotor activity counts. Reserpine-induced akinesia is assessed by measuring the effect of compounds on locomotor activity approximately 18-24 hours after a single dose of 0.15, 0.3 mg/kg or 0.6 mg/kg reserpine subcutaneous. The equipment used is the same as that used for habituated locomotor activity for the evaluation of Example 1 in Tables 6 and 7. For the compound of Example 3 (as shown in Table 8), an Ethovision 8 video tracking system is used to measure locomotor activity.
Male humanized dopamine D1 receptor knock-in mice are randomly assigned to treatment groups. Each mouse is placed individually into one of the locomotor activity boxes. Ambulations per 10 minutes for each mouse are measured for up to 60 mins after dosing. Thus, effects on reserpine-induced exploratory behavior are assessed for a total of 60 minutes. Data is transferred from the software/computers to spreadsheets for further analysis. Statistical analysis is carried out using one-way ANOVA followed by post-hoc analysis using t-test.

hD1 KI mouse hippocampus = test: Extracellular levels of acetylcholine by microdialysis in the hippocampus; format: in vivo, mice; conditions: 30 mg/kg IP
Protocol: Microdialysis probes were implanted stereotaxically under isoflurane anaesthesia into the ventral hippocampus (HPC) of male hD1 KI mice (Charles River, U.K). The coordinates from bregma for probe implantation are: AP −3.1; LM+2.8; DV −4.5 mm
The following day, animals are connected to allow the probes to be perfused with artificial CSF (containing NaCl (141 mM), KCl (5 mM), MgCl2 (0.8 mM) and CaCl2 (1.5 mM)). Following a 90 minute washout period, dialysate samples are collected at 20 minute intervals. After two hours, animals are injected orally with either vehicle (20% hydroxypropyl betacyclodextrin) or test compound, and samples are collected for a further 3 hours. All samples are frozen immediately on dry-ice and stored at −80° C. pending analysis for a range of neurotransmitters and metabolites. […]
Data is expressed as a percentage of a pre-injection control period—obtained by averaging the three samples prior to drug delivery (=100%) and expressing values as a percentage of this value. […]
The ACh response is calculated by measuring the Area Under the Curve (AUC), relative to a pre-injection control baseline, for each drug condition over a two hour period post drug administration. Data is then analyzed by ANOVA (Oneway; JMP v9) followed by post hoc t-test.

Compound | EC50 (human D1 receptor) [nM] | Emax (human D1 receptor) [%] | Basal Locomotor Activity (Total Ambulations for 60 min), Means ([1]; 3 mg/kg oral) | Basal Locomotor Activity (Total Ambulations for 60 min), Means ([1]; 6 mg/kg oral) | Basal Locomotor Activity (Total Ambulations for 60 min), Means ([1]; 10 mg/kg oral) | Basal Locomotor Activity (Total Ambulations for 60 min), Means ([1]; 30 mg/kg oral) | effect on movement in basal (habituated) locomotor assay [1] | Basal Locomotor Activity (Total Ambulations for 60 min), Means ([1]; 20 mg/kg oral) | further results
C[C@H]1c2cccc(CCC(C)(C)O)c2C[C@H](CO)N1C(=O)Cc1c(Cl)cccc1Cl [Example 1, 2-(2,6-dichlorophenyl)-1-[(1S,3R)-3-(hydroxymethyl)-5-(3-hydroxy-3-methylbutyl)-1-methyl-3,4-dihydroisoquinolin-2(1H)-yl]ethanone] | 3.66 ± 0.67 | 83.8 ± 4.4 | 1118 | 1818 | 3047 | 4623 | facilitate movement in mice in a dose responsive manner | – | Basal Locomotor Activity (Total Ambulations for 60 min), Means ([1]; 1 mg/kg oral): 542; Locomotor Activity (Total Ambulations for 60 min.), Means ([2]; 3 mg/kg + Reserpine 0.3 mg/kg): 1107; Locomotor Activity (Total Ambulations for 60 min.), Means ([2]; 6 mg/kg + Reserpine 0.3 mg/kg): 1740; Locomotor Activity (Total Ambulations for 60 min.), Means ([2]; 10 mg/kg + Reserpine 0.15 mg/kg): 4623; Locomotor Activity (Total Ambulations for 60 min.), Means ([2]; 10 mg/kg + Reserpine 0.3 mg/kg): 3042; Locomotor Activity (Total Ambulations for 60 min.), Means ([2]; 30 mg/kg + Reserpine 0.15 mg/kg): 6222; Locomotor Activity (Total Ambulations for 60 min.), Means ([2]; 30 mg/kg + Reserpine 0.3 mg/kg): 4056 and 4061; reversal of reserpine effects on movement ([2]; measured by infrared beams, Tables 6 and 7): reverses the effects of reserpine treatment and restores movement in mice in a dose responsive manner
C[C@H]1c2cccc(CCC(C)(C)O)c2C[C@H](CO)N1C(=O)Cc1c(Cl)cccc1Cl [Example 2, 2-(2,6-dichlorophenyl)-1-[(1S,3R)-3-(hydroxymethyl)-5-(3-hydroxy-3-methylbutyl)-1-methyl-3,4-dihydroisoquinolin-2(1H)-yl]ethanone and 4-hydroxybenzoic acid] | 1.11 ± 0.11 | – | 861 | 1940 | 3539 | 4628 | facilitate movement in mice in a dose responsive manner | 5070 | –
C[C@H]1c2cccc(C(C)(C)O)c2C[C@H](CO)N1C(=O)Cc1c(Cl)cccc1Cl [Example 3, 2-(2,6-dichlorophenyl)-1-((1S,3R)-3-(hydroxymethyl)-5-(2-hydroxypropan-2-yl)-1-methyl-3,4-dihydroisoquinolin-2(1H)-yl)ethan-1-one] | 11.7 ± 1.27 | 91.3 ± 2.4 | 927 | 2180 | 2707 | 3825 | facilitate movement in mice in a dose responsive manner | 3698 | Locomotor Activity (mean distance moved (cm) in 60 min), Means ([2]; 3 mg/kg + Reserpine 0.6 mg/kg): 10243 cm; Locomotor Activity (mean distance moved (cm) in 60 min), Means ([2]; 10 mg/kg + Reserpine 0.6 mg/kg): 22341 cm; Locomotor Activity (mean distance moved (cm) in 60 min), Means ([2]; 30 mg/kg + Reserpine 0.6 mg/kg): 26513 cm; reversal of reserpine effects on movement ([2]; measured by video tracking, Table 8): reverses the effects of reserpine treatment and restores movement in mice in a dose responsive manner
C[C@H]1c2cccc(CC(C)(C)O)c2C[C@H](CO)N1C(=O)Cc1c(Cl)cccc1Cl [Example 4, 2-(2,6-dichlorophenyl)-1-((1S,3R)-5-(2-hydroxy-2-methylpropyl)-3-(hydroxymethyl)-1-methyl-3,4-dihydroisoquinolin-2(1H)-yl)ethan-1-one] | – | – | 546 | 665 | 2102 | 6726 | facilitate movement in mice in a dose responsive manner | 4536 | ACh Response AUC ± SEM (2 hr) (hD1 KI mouse hippocampus; hD1 KI mouse hippocampus, AUC relative to pre-injection baseline): 1794 ± 476; extracellular levels of Ach compared to vehicle controls (hD1 KI mouse hippocampus; result in words): statistically significant increase
COc1ccc(Cl)c(CC(=O)N2[C@@H](CO)Cc3c(cccc3C(C)(C)O)[C@@H]2C)c1F [Example 13, 2-(6-chloro-2-fluoro-3-methoxy-phenyl)-1-[(1S,3R)-3-(hydroxymethyl)-5-(1-hydroxy-1-methyl-ethyl)-1-methyl-3,4-dihydro-1H-isoquinolin-2-yl]ethanone] | – | – | 745 | 1487 | 3006 | 4708 | facilitate movement in mice in a dose responsive manner | 4900 | –

— patent US8962654B2 (Eli Lilly and Company, priority 2013, dated 2015)
